Measured values as given in ChEMBL document CHEMBL5329197, “Harvesting phosphorus-containing moieties for their antibacterial effects” (Bioorg Med Chem, 2023).
Values after ≈ are worked out from the molar mass of the structure shown.

Experiments:
[1] = Inhibition of GIM1 (unknown origin)
Enterococcus faecalis [2] = test: Antibacterial activity against Enterococcus faecalis assessed as inhibition of bacterial growth measured after 24 hrs by CLSI-based microdilution method; assay type: functional
Pseudomonas aeruginosa [3] = test: Antibacterial activity against Pseudomonas aeruginosa assessed as inhibition of bacterial growth measured after 24 hrs by CLSI-based microdilution method; assay type: functional
Escherichia coli [4] = test: Antibacterial activity against Escherichia coli assessed as reduction in bacterial growth measured after 24 hrs by CLSI-based Mueller-Hinton broth dilution method; assay type: functional
Staphylococcus aureus [5] = test: Antibacterial activity against Staphylococcus aureus assessed as inhibition of bacterial growth measured after 24 hrs by CLSI-based microdilution method; assay type: functional
Klebsiella pneumoniae [6] = test: Antibacterial activity against Klebsiella pneumonia assessed as inhibition of bacterial growth measured after 24 hrs by CLSI-based microdilution method; assay type: functional
Acinetobacter baumannii [7] = test: Antibacterial activity against Acinetobacter baumannii assessed as reduction in microbial growth measured after 24 hrs by Mueller-Hinton broth based two-fold serial dilution method; assay type: functional
Bacillus cereus = test: Antibacterial activity against Bacillus cereus assessed as reduction in microbial growth measured after 24 hrs by Mueller-Hinton broth based two-fold serial dilution method; assay type: functional
Escherichia coli [8] = test: Antibacterial activity against Escherichia coli ATCC 25922 assessed as reduction in microbial growth measured after 24 hrs by Mueller-Hinton broth based two-fold serial dilution method; assay type: functional
Staphylococcus aureus [9] = test: Antibacterial activity against Staphylococcus aureus ATCC 25900 assessed as reduction in microbial growth measured after 24 hrs by Mueller-Hinton broth based two-fold serial dilution method; assay type: functional
Pseudomonas aeruginosa [10] = test: Antibacterial activity against Pseudomonas aeruginosa ATCC 27853 assessed as reduction in microbial growth measured after 24 hrs by Mueller-Hinton broth based two-fold serial dilution method; assay type: functional
Candida albicans [11] = test: Antibacterial activity against Candida albicans assessed as reduction in microbial growth measured after 24 hrs by Mueller-Hinton broth based two-fold serial dilution method; assay type: functional
Staphylococcus aureus [12] = test: Antibacterial activity against methicillin-resistant Staphylococcus aureus assessed as reduction in bacterial cell growth incubated for 24 hrs by broth microdilution method; assay type: functional
Salmonella typhimurium = test: Antibacterial activity against Salmonella typhimurium DT104 ATCC 14028 assessed as reduction in microbial growth measured after 24 hrs by CLSI-based method; assay type: functional, Salmonella enterica subsp. enterica serovar Typhimurium; conditions: Salmonella enterica
Escherichia coli [13] = test: Antibacterial activity against Escherichia coli assessed as minimum bactericidal concentration incubated for 24 hrs; assay type: functional
Escherichia coli [14] = test: Antibacterial activity against Escherichia coli JW 1772 assessed as reduction in microbial growth after 24 hrs by two-fold serial dilution method; assay type: functional
Candida albicans [15] = test: Antifungal activity against Candida albicans ATCC 28367 assessed as reduction in fungal growth incubated for 24 hrs by CLSI based analysis; assay type: functional
Bacillus subtilis [16] = test: Antibacterial activity against Bacillus subtilis ATCC 6633 assessed as reduction in microbial growth after 24 hrs by two-fold serial dilution method; assay type: functional
Staphylococcus aureus [17] = test: Antibacterial activity against Staphylococcus aureus ATCC 25923 assessed as reduction in microbial growth after 24 hrs by two-fold serial dilution method; assay type: functional
Nakaseomyces glabratus = test: Antifungal activity against Candida glabrata ATCC 15126 assessed as reduction in fungal growth incubated for 24 hrs by CLSI based analysis; assay type: functional
Bacillus subtilis [18] = test: Antibacterial activity against Bacillus subtilis ATCC 6633 assessed as minimum bactericidal concentration incubated for 24 hrs; assay type: functional
Staphylococcus aureus [19] = test: Bactericidal activity against Staphylococcus aureus ATCC 25923 assessed as reduction in bacterial cell growth incubated for 24 hrs by CLSI-based analysis; assay type: functional
[20] = Binding affinity to D-Ala-D-Ala assessed as dissociation constant
Acinetobacter baumannii [21] = test: Antibacterial activity against Acinetobacter baumannii assessed as reduction in bacterial growth measured after 24 hrs by Mueller-Hinton broth dilution method; assay type: functional
Acinetobacter baumannii [22] = test: Antibacterial activity against Acinetobacter baumannii assessed as reduction in bacterial growth by Mueller-Hinton broth microdilution method; assay type: functional, organism-based
Escherichia coli [23] = test: Antibacterial activity against Escherichia coli assessed as reduction in bacterial growth; assay type: functional
Enterococcus durans = test: Antibacterial activity against Enterococcus durans assessed as reduction in bacterial growth; assay type: functional
Pseudomonas aeruginosa [24] = test: Antibacterial activity against Pseudomonas aeruginosa assessed as reduction in bacterial growth; assay type: functional
Bacillus subtilis [25] = test: Antibacterial activity against Bacillus subtilis assessed as reduction in bacterial growth; assay type: functional
Carbonic anhydrase 2 [26] = target: T1, Carbonic anhydrase 2 (Homo sapiens, UniProt P00918); test: Binding affinity to CA2 (unknown origin) assessed as inhibition constant
Carbonic anhydrase 2 [27] = target: T1, Carbonic anhydrase 2; test: Binding affinity to human CA2 in U2OS cells assessed as inhibition constant; assay type: cell-based
[28] = Binding affinity to Escherichia coli ThiM TPP riboswitch assessed as dissociation constant
Staphylococcus aureus [29] = test: Antibacterial activity against methicillin-susceptible Staphylococcus aureus assessed as reduction in bacterial cell growth; assay type: functional
Neisseria gonorrhoeae = test: Antibacterial activity against Neisseria gonorrhoeae ATCC 49226 assessed as reduction in bacterial growth; assay type: functional
Escherichia coli [30] = test: Antibacterial activity against Escherichia coli assessed as zone of inhibition; assay type: functional
Klebsiella aerogenes = test: Antibacterial activity against Enterobacter aerogenes assessed as zone of inhibition; assay type: functional
[31] = Inhibition of Bordetella pertussis Adenylate cyclase toxin
[32] = Inhibition of Bordetella pertussis Adenylate cyclase toxin in mouse J774.A1 cells; assay type: cell-based
Escherichia coli [33] = test: Antibacterial activity against Escherichia coli ATCC 8730 assessed as reduction in bacterial cell growth measured after 24 hrs by microplate reader based analysis; assay type: functional
Staphylococcus aureus [34] = test: Antibacterial activity against methicillin-resistant Staphylococcus aureus assessed as inhibition of cell growth; assay type: functional
Enterococcus faecium = test: Antibacterial activity against Enterococcus faecium assessed as bacterial growth inhibition; assay type: functional
Enterococcus faecalis [35] = test: Antibacterial activity against Enterococcus faecalis assessed as bacterial growth inhibition; assay type: functional
Klebsiella pneumoniae [36] = test: Antibacterial activity against carbapenem resistance Klebsiella pneumoniae ATCC BAA-1705 assessed as inhibition of microbial growth measured after 24 hrs by microplate reader analysis; assay type: functional
Plasmodium falciparum = test: Antiplasmodial activity against Plasmodium falciparum assessed as parasitic growth inhibition; assay type: functional, organism-based
[37] = Binding affinity to Sporosarcina pasteurii Urease assessed as inhibition constant
Staphylococcus aureus [38] = test: Antibacterial activity against methicillin-Staphylococcus aureus ATCC 43300 assessed as reduction in bacterial growth measured after 24 hrs by broth microdilution method; assay type: functional

SMILES: COP(=O)(CCSC(C)=O)NCc1ccccn1 (stereo not drawn)
- IC50 [1]: 86000 nM

SMILES: CCCCc1nc(Cl)c(C(Nc2ccc(S(N)(=O)=O)cc2)P(=O)(OCC)OCC)n1Cc1ccc(Cl)cc1 (stereo not drawn)
- MIC (Enterococcus faecalis [2]): 4 µg/mL (≈ 6.63 µM)
- MIC (Pseudomonas aeruginosa [3]): 4 µg/mL (≈ 6.63 µM)
- MIC (Escherichia coli [4]): 2 µg/mL (≈ 3.31 µM)
- MIC (Staphylococcus aureus [5]): 4 µg/mL (≈ 6.63 µM)
- MIC (Klebsiella pneumoniae [6]): 4 µg/mL (≈ 6.63 µM)

SMILES: CCOP(=O)(OCC)C(Nc1ncc(-c2cc3ccccc3oc2=O)s1)c1ccccc1Br (stereo not drawn)
- MIC (Acinetobacter baumannii [7]): 0.125 µg/mL
- MIC (Bacillus cereus): 0.125 µg/mL
- MIC (Escherichia coli [8]): 0.125 µg/mL
- MIC (Staphylococcus aureus [9]): 0.125 µg/mL
- MIC (Pseudomonas aeruginosa [10]): 0.125 µg/mL
- MIC (Candida albicans [11]): 0.125 µg/mL

SMILES: CCCCCC[P+](/C=C(\c1ccccc1)c1cc(Cl)ccc1O)(c1ccccc1OC)c1ccccc1OC
- MIC (Staphylococcus aureus [12]): < 1 µM

SMILES: O/N=C1\CCCC1P(=S)(c1ccccc1)c1ccccc1 (stereo not drawn)
- MIC (Salmonella typhimurium): 0.1 µg/mL
- MBC (Escherichia coli [13]): 2 µg/mL (≈ 6.34 µM)
- MIC (Escherichia coli [14]): 0.1 µg/mL
- MIC (Candida albicans [15]): 0.1 µg/mL (≈ 0.317 µM)
- MIC (Bacillus subtilis [16]): 0.1 µg/mL
- MIC (Staphylococcus aureus [17]): 0.1 µg/mL
- MIC (Nakaseomyces glabratus): 0.1 µg/mL (≈ 0.317 µM)
- MBC (Bacillus subtilis [18]): 2 µg/mL (≈ 6.34 µM)
- MBC (Staphylococcus aureus [19]): 2 µg/mL (≈ 6.34 µM)

SMILES: CCC(CP(=O)(O)C(C)N)C(=O)O (stereo not drawn)
- Ki [20]: 90 nM

SMILES: CCCCCCCCCCCC[P+](c1ccccc1)(c1ccccc1)c1ccccc1
- MIC (Acinetobacter baumannii [21]): 6.25 µM

SMILES: CCCCCCCCCC[P+](CCCCCC[P+](CCCCCCCCCC)(c1ccccc1)c1ccccc1)(c1ccccc1)c1ccccc1
- IC50 (Acinetobacter baumannii [22]): 3000 nM

SMILES: Cn1nccc1CP(=O)(Cc1ccnn1C)Cc1ccnn1C
- MIC (Escherichia coli [23]): 0.15 µg/mL (≈ 0.451 µM)
- MIC (Enterococcus durans): 0.15 µg/mL (≈ 0.451 µM)
- MIC (Pseudomonas aeruginosa [24]): 0.15 µg/mL (≈ 0.451 µM)
- MIC (Bacillus subtilis [25]): 0.15 µg/mL (≈ 0.451 µM)

SMILES: COCCOP(N)(=O)c1ccccc1 (stereo not drawn)
- Ki (Carbonic anhydrase 2 [26]): 20 nM
- Ki (Carbonic anhydrase 2 [27]): 32800 nM

SMILES: Cc1ncc(Cn2cc(CCOP(=O)(O)CP(=O)(O)O)nn2)c(N)n1
- Kd [28]: 9 nM

SMILES: CCCCCCCCCC[P+](C)(C)CCCCCCCCCC.[Cl-] [DIDECYLDIMETHYLPHOSPHONIUM CHLORIDE]
- MIC (Staphylococcus aureus [29]): 0.78 µg/mL

SMILES: C=C(C/C=C(\C)CCC=C(C)C)CCC(C)(C)/C=C/CC/C(C)=C\CO[C@H](COP(=O)(O)O[C@H]1O[C@H](C(N)=O)[C@@](C)(O)[C@H](OC(N)=O)[C@H]1O[C@@H]1O[C@H](CO[C@@H]2O[C@H](CO)[C@@H](O)[C@H](O)[C@H]2O)[C@@H](O[C@@H]2O[C@H](C)[C@@H](O[C@@H]3O[C@H](C(=O)NC4=C(O)CCC4=O)[C@H](O)[C@H](O)[C@H]3O)[C@H](O)[C@H]2NC(C)=O)[C@H](O)[C@H]1NC(C)=O)C(=O)O
- MIC (Neisseria gonorrhoeae): 0.004 µg/mL (≈ 0.00253 µM)

SMILES: CCCCCCCC[P+](CCCC)(CCCCCCCC)CCCCCCCC.CS(=O)(=O)[O-]
- inhibition zone (IZ) (Escherichia coli [30]): 14 mm
- inhibition zone (IZ) (Klebsiella aerogenes): 14 mm

SMILES: O=P(c1ccccc1)(c1ccccc1)C1CCC/C1=N\O (stereo not drawn)
- MIC (Salmonella typhimurium): 0.1 µg/mL
- MBC (Escherichia coli [13]): 2 µg/mL (≈ 6.68 µM)
- MIC (Escherichia coli [14]): 0.1 µg/mL
- MIC (Candida albicans [15]): 0.1 µg/mL (≈ 0.334 µM)
- MIC (Bacillus subtilis [16]): 0.1 µg/mL
- MIC (Staphylococcus aureus [17]): 0.1 µg/mL
- MIC (Nakaseomyces glabratus): 0.1 µg/mL (≈ 0.334 µM)
- MBC (Bacillus subtilis [18]): 2 µg/mL (≈ 6.68 µM)
- MBC (Staphylococcus aureus [19]): 2 µg/mL (≈ 6.68 µM)

SMILES: Nc1ncnc2c1ncn2CCOCP(=O)(O)OP(=O)(O)OP(=O)(O)O [ADEFOVIR DIPHOSPHATE]
- IC50 [31]: 18 nM
- IC50 [32]: 150 nM

SMILES: Cc1ncc(C[n+]2csc(CCOP(=O)(O)CP(=O)(O)O)c2C)c(N)n1
- Kd [28]: 20 nM

SMILES: C[C@H](N)C(=O)N[C@@H](C)C(=O)N[C@@H](C)P(=O)(O)O
- MIC90 (Escherichia coli [33]): 0.25 µg/mL (≈ 0.936 µM)
- MIC90 (Staphylococcus aureus [34]): 8 µg/mL (≈ 29.9 µM)
- MIC90 (Enterococcus faecium): 2 µg/mL (≈ 7.48 µM)
- MIC90 (Enterococcus faecalis [35]): 0.5 µg/mL (≈ 1.87 µM)
- MIC90 (Klebsiella pneumoniae [36]): 4 µg/mL

SMILES: CCCCCCCC(=O)OCOP(=O)(CCCC(=O)N(C)O)OCOC(=O)CCCCCCC
- IC50 (Plasmodium falciparum): 50 nM

SMILES: CN(C)CP(C)(=O)O [(DIMETHYLAMINO)METHYL(METHYL)PHOSPHINIC ACID]
- Ki [37]: 620 nM

SMILES: CC(C)OC(=O)[C@H](Cc1ccccc1)NP(=O)(COCCn1cnc2c(N)nc(F)nc21)N[C@@H](Cc1ccccc1)C(=O)OC(C)C
- IC50 [31]: 145 nM

SMILES: CS(=O)(=O)[O-].O=C(CCc1ccc(O)c(O)c1)NCCCCCCCCCC[P+](c1ccccc1)(c1ccccc1)c1ccccc1
- MIC (Staphylococcus aureus [38]): 0.25 µg/mL

SMILES: CN(C)CP(=O)(O)O
- Ki [37]: 13000 nM
